Measured values: patent US5708174A, “Heterocyclic-esters or -amides used as 5-HT4 receptor antagonists” (SmithKline Beecham p.l.c., priority 1992, dated 1998)
Structures can show the parent of a compound that is named as a salt.

System: 5-HT4 receptor
Experiment: Guinea pig colon 5-HT4 receptor antagonist activity (longitudinal muscle-myenteric plexus, 5-HT-evoked contraction)
Type: cell-based
Conditions: guinea-pig distal colon longitudinal muscle-myenteric plexus; contraction evoked by 5-HT
Experimental: 5-HT4 RECEPTOR ANTAGONIST ACTIVITY
Male guinea-pigs, weighing 250-400 g are used. Longitudinal muscle-myenteric plexus preparations, approximately 3 cm long, are obtained from the distal colon region. These are suspended under a 0.5 g load in isolated tissue baths containing Krebs solution bubbled with 5% CO2 in O2 and maintained at 37° C. In all experiments, the Krebs solution also contains methiothepin 10^-7 M and granisetron 10^-6 M to block effects at 5-HT1, 5-HT2 and 5-HT3 receptors.
After construction of a simple concentration-response curve with 5-HT, using 30s contact times and a 15 min dosing cycle, a concentration of 5-HT is selected so as to obtain a contraction of the muscle approximately 40-70% maximum(10^-9 M approx). The tissue is then alternately dosed every 15 min with this concentration of 5-HT and then with an approximately equi-effective concentration of the nicotine receptor stimulant, dimethylphenylpiperazinium (DMPP). After obtaining consistent responses to both 5-HT and DMPP, increasing concentrations of a putative 5-HT4 receptor antagonist are then added to the bathing solution. The effects of this compound are then determined as a percentage reduction of the contractions evoked by 5-HT or by DMPP. […] A compound which reduces the response to 5-HT but not to DMPP is believed to act as a 5-HT4 receptor antagonist.

- 5-HT4 receptor antagonist activity (in words): particularly good activity
Compound: CCCCN1CCC(COC(=O)c2cccc3cccnc23)CC1 [Example 1-2, (1-Butyl-4-piperidinylmethyl)quinolinyl-8-carboxylate hydrochloride]
